Results published in US7335500B2, “Production of fucosylated carbohydrates by enzymatic fucosylation synthesis of sugar nucleotides; and in situ regeneration of GDP-fucose” (The Scripps Research Institute, priority 1991, dated 2008).
Like-named read-outs stand apart in the source and are kept apart here.

Tests used:
[1] = target: T1, GalT (Bos taurus, UniProt P08037); conditions: cited from earlier work
T1 construct: purchased Sigma
T1 sequence (P08037 79-402 limits assumed): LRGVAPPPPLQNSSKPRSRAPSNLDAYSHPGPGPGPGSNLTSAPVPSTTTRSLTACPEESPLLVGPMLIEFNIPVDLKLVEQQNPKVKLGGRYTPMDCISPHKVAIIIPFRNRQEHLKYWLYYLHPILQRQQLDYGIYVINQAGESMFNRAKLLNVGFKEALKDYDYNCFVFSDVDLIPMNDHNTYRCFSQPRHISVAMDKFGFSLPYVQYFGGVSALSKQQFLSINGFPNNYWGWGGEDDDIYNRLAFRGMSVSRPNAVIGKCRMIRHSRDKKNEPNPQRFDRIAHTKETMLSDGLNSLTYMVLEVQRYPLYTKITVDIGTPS

[2] = target: T2, human plasma type α1,3FucT (Homo sapiens, UniProt Q11128); assay: Substrate specificity and inhibition study of α1,3FucT (GDP-14C-Fuc transfer assay); type: biochemical; conditions: for Vrel (relative maximal velocities) / Km / IC50: 0.1 mM GDP-Fuc; for Vrel (relative maximal velocities): 10 mM MnCl2 and 10 mM Galβ1,4GlcNAc, Galβ1,4GlcNAc = 100; for Km: acceptor substrate, 10 mM MnCl2; for relative maximum velocity (Vrel) based on LacNAc: relative rate at Vmax; for IC50: 10 mM Mn2+ and 10 mM LacNAc at pH 6.2 and 37° C.; for mode of inhibition: versus LacNAc; for inhibition in combination with GDP: GDP present at its IC50 of 0.05 mM, FIG. 3: 34 mM Compound 50, 0.2 mM 14C-GDP-fucose, 20 mM MnCl2, pH 6.2
T2 sequence (Q11128 1-374): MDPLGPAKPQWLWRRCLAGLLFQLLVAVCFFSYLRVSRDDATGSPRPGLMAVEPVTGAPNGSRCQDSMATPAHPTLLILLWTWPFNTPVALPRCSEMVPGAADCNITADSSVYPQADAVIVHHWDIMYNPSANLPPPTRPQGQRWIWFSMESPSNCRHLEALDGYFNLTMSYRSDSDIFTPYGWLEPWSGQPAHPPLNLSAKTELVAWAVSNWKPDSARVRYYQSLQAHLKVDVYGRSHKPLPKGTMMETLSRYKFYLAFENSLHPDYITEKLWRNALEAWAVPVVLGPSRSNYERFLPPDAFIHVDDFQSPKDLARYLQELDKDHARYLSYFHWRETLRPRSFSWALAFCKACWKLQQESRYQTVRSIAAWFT
Experimental: (§1) The assay procedure was essentially the same as described previously [Fukowska-Latallo et al, Gene & Development, 4:1288 (1990)] with some modifications. A stock mixture containing 0.25 mM GDP-^14C-Fuc (5000 cpm/mL), 6.25 mM ATP, 25 mM MnCl2 and 62.5 mM sodium cacodylate buffer, pH 6.2 was mixed freshly and kept on ice. […] The incubation was carried out at 37° C. for 30 to 240 minutes depending upon the acceptor under study. Separate assays in the absence of acceptor were used to correct for background hydrolysis of GDP-Fuc. Upon completion of incubation, 400 μL of a 25 percent (v/v) suspension of QAE-Sephadex was added. […] From the supernatant fluid, 200 μL were extracted and mixed with 10 mL of scintillation cocktail. The radioactivity was counted on a scintillation counter. […] This assay can be run in the absence of ATP.

[3] = target: T3, α1,3/4Fucosyltransferase (Homo sapiens, UniProt P21217); assay: Substrate specificity and inhibition study of α1,3/4FucT (GDP-14C-Fuc transfer assay); type: biochemical; conditions: for Vrel (relative velocities): 0.20 mM GDP-Fuc, 20 mM MnCl2, 10 mM acceptor, Galβ1,4GlcNAc = 100
T3 sequence (P21217 1-361): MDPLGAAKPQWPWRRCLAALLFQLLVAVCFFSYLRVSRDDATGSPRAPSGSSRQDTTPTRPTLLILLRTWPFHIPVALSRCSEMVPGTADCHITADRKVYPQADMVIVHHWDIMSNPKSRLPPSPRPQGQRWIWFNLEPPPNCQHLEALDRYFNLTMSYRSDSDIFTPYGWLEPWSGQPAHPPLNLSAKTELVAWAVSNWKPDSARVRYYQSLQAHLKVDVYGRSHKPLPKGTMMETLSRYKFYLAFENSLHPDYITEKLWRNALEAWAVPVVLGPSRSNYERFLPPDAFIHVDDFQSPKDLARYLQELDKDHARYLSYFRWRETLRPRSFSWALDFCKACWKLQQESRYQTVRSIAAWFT
Experimental: as §1

[4] = target: T1, GalT; assay: Kinetic study of GalT (rate of LacNAc formation, UDP-14C-Gal); type: biochemical; conditions: 100 mM cacodylate pH 7.5, 9.3 mM Mn2+, 0.1 mM UDP-Gal, 20° C.
Experimental: Initial velocities of the enzyme reaction were determined by measuring the rate of LacNAc formation with a slight modification of the assay by Pierce et al. [Pierce et al., Anal. Biochem., 102:441 (1980)]. All the reactions were carried out in 100 mM cacodylate buffer (pH 7.5) with fixed concentrations of Mn^2+ (9.3 mm) and UDP-Gal (0.1 mM; 58.5 cpm/pmol of UDP-^14C-Gal) in […] of solution. The reaction was initiated by the addition of GalT (0.05 U, […]; from Sigma) and permitted to stand at 20° C. for 30 minutes. Nonspecific hydrolysis of UDP-Gal was measured by the control reaction in the absence of GalT. The reaction was stopped by passing through a column of QAE-Sephadex ([…]), and eluted by gentle air pressure to remove the unreacted UDP-Gal. The reaction vial was rinsed twice with […] of water each and passed through the resin column. The filtrates were collected and directly transferred into a scintillation vial. The scintillation fluid was added to the vial, and then radioactivity was counted by a liquid scintillation counter. […] Res., 159:315 (1987)] and Ki (0.46±0.06 mM) for UDP. Similarly, IC50 value of UDP for GalT was determined using different concentration of UDP.

Vrel (relative maximal velocities) [2] | IC50 [2] [mM] | Vrel (relative velocities) [3] | Compound | other results
330 |  |  | CC(=O)N[C@H]1C([C@H](O)[C@H](O)CO)O[C@@](OC2[C@H](O)C(O[C@H]3C(O)C=COC3CO)OC(CO)[C@@H]2O)(C(=O)O)C[C@H]1O (stereo partly shown) [NeuAcα2,3Galβ1,4Glucal] | Km [2]: 64 mM; relative maximum velocity (Vrel) based on LacNAc [2]: 330%
 | 8 |  | OC[C@H]1NC[C@H](O)[C@@H](O)[C@@H]1O[C@@H]1O[C@H](CO)[C@H](O)[C@H](O)[C@H]1O [Galβ1,4deoxynojirimycin] | IC50 ([3]; inhibitor concentration required to give 50% inhibition with 0.2 mM GDP-Fuc): 40 mM
13 |  |  | CC(=O)N[C@@H]1[C@@H](O)[C@H](O[C@@H]2O[C@H](CO[C@]3(C(=O)O)C[C@H](O)[C@@H](NC(C)=O)[C@H]([C@H](O)[C@H](O)CO)O3)[C@H](O)[C@H](O)[C@H]2O)[C@@H](CO)O[C@H]1O [NeuAcα2,6Galβ1,4GlcNAc] | Km [2]: 70 mM; times less active as a substrate than the α2,3-isomer ([2]; compared with NeuAcα2,3Galβ1,4GlcNAc): about 50 times
150 |  | 120 | OC[C@H]1O[C@@H](O[C@H]2[C@H](O)[C@@H](O)C(O)O[C@@H]2CO)[C@H](O)[C@@H](O)[C@H]1O (stereo partly shown) [Galβ1,4Glc] | relative maximum velocity (Vrel) based on LacNAc [2]: 150%
 |  | 13 | CC(=O)N[C@H]1[C@H](OC[C@H]2O[C@@H](O[C@H]3[C@H](O)[C@@H](O)C(O)O[C@@H]3CO)[C@H](O)[C@@H](O)[C@H]2O)O[C@H](CO)[C@@H](O)[C@@H]1O (stereo partly shown) [GlcNAcβ1,6Galβ1,4Glc] | 
 |  | 27 | CC(=O)N[C@H]1C(O)O[C@H](CO)[C@H](O[C@@H]2O[C@H](CO)[C@H](O)[C@H](O)[C@H]2O)[C@@H]1O (stereo partly shown) [Galβ1,4GalNAc] | 
51 |  | 310 | OC[C@H]1O[C@@H](O[C@H]2[C@H](O)[C@@H](O)C(O)S[C@@H]2CO)[C@H](O)[C@@H](O)[C@H]1O (stereo partly shown) [Galβ1,4(5-thioGlc), Galβ1,4(5-thio)Glc] | Km [2]: 12 mM
 | > 50 | 23 | CC(=O)N[C@H]1[C@H](O[C@H]2[C@H](O)[C@@H](NC(C)=O)C(O)O[C@@H]2CO)O[C@H](CO)[C@@H](O)[C@@H]1O (stereo partly shown) [GlcNAcβ1,4GlcNAc] | 

Continued, compound first:

Compound | Vrel (relative maximal velocities) [2] | IC50 [2] [mM] | Vrel (relative velocities) [3] | other results
OC[C@H]1NC[C@H](O)[C@@H](O)[C@@H]1O [Deoxynojirimycin] |  |  |  | substrate for α1,4GalT (in words) ([1]; Wong et al., J. Am. Chem. Soc., 113:8137-8145 (1991)): a substrate
Nc1nc2c(ncn2C2OC(COP(=O)(O)OP(=O)(O)OC3OC(CO)C(O)C(O)C3O)C(O)C2O)c(=O)[nH]1 (stereo not shown) [GDP-Man, guanosine 5′-diphospho-mannose] |  | 2 |  | 
Galβ1,4GlcNAc | 100 |  | 100 | Km [2]: 35 mM
C=CCO[C@@H]1O[C@H](CO)[C@@H](O[C@@H]2O[C@H](CO)[C@H](O)[C@H](O)[C@H]2O)C[C@H]1NC(C)=O [Galβ1,4(3-deoxy)GlcNAcβOallyl] |  |  |  | inhibition of α1,3FucT (in words) ([2]; acceptor substrate analog): weak inhibitor
OCC1N[C@@H](CO)C(O)[C@@H]1O (stereo partly shown) |  | 52 |  | 
CC(=O)N[C@H]1C(O)O[C@H](CO)[C@@H](O)[C@@H]1O[C@@H]1O[C@H](CO)[C@H](O)[C@H](O)[C@H]1O (stereo partly shown) [Galβ1,3GlcNAc] | 130 | > 50 | 580 | 
Nc1nc2c(ncn2[C@@H]2O[C@H](COP(=O)(O)OP(=O)(O)O)[C@@H](O)[C@H]2O)c(=O)[nH]1 [GDP, guanosine 5′-diphosphate] |  | 0.05 |  | Ki ([2]; footnote of Table 3, read-out: Ki): 19 mM; Ki ([2]; noncompetitive inhibitor versus LacNAc, read-out: Kii): 0.13 mM; Ki ([2]; noncompetitive inhibitor versus LacNAc, read-out: Kis): 0.16 mM; mode of inhibition [2]: noncompetitive inhibitor
CC1N[C@@H](CO)C(O)[C@@H]1O (stereo partly drawn) [Compound 50, (2R)-Methyl-(5S)-hydroxymethyl-(3R, 4R)-dihydroxyprollidine] |  | 34 |  | inhibition in combination with GDP [2]: profound, synergistic inhibition; mode of inhibition [2]: competitive inhibitor
CC1NC(CO)C(O)C1O (stereo not shown) [Compound 53] |  | 80 |  | inhibition in combination with GDP [2]: profound, synergistic inhibition; mode of inhibition [2]: competitive inhibitor
O=c1ccn([C@@H]2O[C@H](COP(=O)(O)OP(=O)(O)O)[C@@H](O)[C@H]2O)c(=O)[nH]1 [UDP, uridine 5′-diphosphate] |  |  |  | Ki [4]: 0.46 mM
C=CCO[C@@H]1O[C@H](CO)[C@@H](O[C@@H]2O[C@H](CO)[C@H](O)[C@H](O)[C@H]2O)[C@H](O)[C@H]1NC(C)=O [Galβ1,4GlcNAcβOallyl] | 64 |  |  | Km [2]: 16 mM
CC(=O)N[C@H]1C(O)O[C@H](CO)[C@@H](O)[C@@H]1O (stereo partly shown) [GlcNAc, N-acetylglucosamine] |  |  |  | Km ([1]; reported in Palcic et al., Carbohydr. Res., 159:315 (1987)): 1.3 ± 1 mM
NeuAcα2,3Galβ1,4GlcNAcβOallyl | 380 |  |  | 
CC(=O)NC1C(O)OC(CO)C(OC2OC(CO)C(O)C(OC3(C(=O)O)CC(O)C(NC(C)=O)C(C(O)C(O)CO)O3)C2O)C1O (stereo not shown) [NeuAcα2,3Galβ1,4GlcNAc] | 620 |  | 60 | Km [2]: 100 mM; relative maximum velocity (Vrel) based on LacNAc [2]: 620%
Fucα1,2Galβ1,4Glc |  |  | 250 | 
C[C@@H]1OC(OP(=O)(O)OP(=O)(O)OC[C@H]2O[C@@H](n3cnc4c(=O)[nH]c(N)nc43)[C@H](O)[C@@H]2O)[C@@H](O)[C@H](O)[C@@H]1O (stereo partly shown) [GDP-Fuc, guanosine 5′-diphospho fucose] |  |  |  | inhibition of α1,3/4FucT (in words) [3]: not an inhibitor; inhibition of α1,3FucT (in words) ([2]; at concentration above 0.2 mM in the presence of 10 mM LacNAc): potent inhibitor
CC(=O)N[C@H]1C(O)O[C@H](CO)[C@H](O)[C@@H]1O[C@@H]1O[C@H](CO)[C@H](O)[C@H](O)[C@H]1O (stereo partly shown) [Galβ1,3GalNAc] |  | > 100 |  | 
